Source: ChEMBL document CHEMBL1944584 (Bioorg Med Chem Lett, 2012)
Activity calls are given as the source filed them. The rule behind the calls is not given here.

What was measured:
Type in all cases: cell-based
[1] = target: T1, Neuronal acetylcholine receptor; alpha4/beta2 (Homo sapiens) (UniProt P17787+P43681); assay: Binding affinity to human alpha4beta2 nAChR in HEK cells at 78 nM after 2 hrs measured 10 mins post-irradiation by autoradiography in the presence of 160 uM (+/-)-bupropion; conditions: HEK293, tested as the 125I-labelled form
[2] = target: T2, Sodium-dependent dopamine transporter (Homo sapiens, UniProt Q01959); assay: Binding affinity to human His6-DAT expressed in LLCPK1 cells at 10 nM after 1.5 hrs measured 2 mins post-irradiation by SDS-PAGE/autoradiography; conditions: LLC-PK1, tested as the 125I-labelled form
T2 sequence (Q01959 whole entry): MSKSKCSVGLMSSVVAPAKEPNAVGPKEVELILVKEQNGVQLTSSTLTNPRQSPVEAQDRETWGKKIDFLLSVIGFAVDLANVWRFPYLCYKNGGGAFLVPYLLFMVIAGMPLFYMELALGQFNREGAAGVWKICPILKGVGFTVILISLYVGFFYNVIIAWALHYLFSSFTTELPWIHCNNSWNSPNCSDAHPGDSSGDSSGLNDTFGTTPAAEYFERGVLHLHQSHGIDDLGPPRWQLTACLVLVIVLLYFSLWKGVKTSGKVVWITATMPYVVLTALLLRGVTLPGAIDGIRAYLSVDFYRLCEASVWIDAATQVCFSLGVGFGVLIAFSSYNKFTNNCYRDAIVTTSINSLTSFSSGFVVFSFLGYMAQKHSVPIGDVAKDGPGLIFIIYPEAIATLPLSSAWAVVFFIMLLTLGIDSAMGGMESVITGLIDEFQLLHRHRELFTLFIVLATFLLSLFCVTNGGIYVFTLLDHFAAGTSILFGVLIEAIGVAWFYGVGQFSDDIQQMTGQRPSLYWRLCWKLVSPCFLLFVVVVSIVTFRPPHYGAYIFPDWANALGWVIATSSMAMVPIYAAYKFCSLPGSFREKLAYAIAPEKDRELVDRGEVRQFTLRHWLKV

[3] = target: T2, Sodium-dependent dopamine transporter; assay: Binding affinity to human His6-DAT expressed in LLCPK1 cells at 10 nM after 1.5 hrs measured 2 mins post-irradiation by autoradiography in the presence of (+/-)-bupropion; conditions: LLC-PK1, tested as the 125I-labelled form
[4] = target: T2, Sodium-dependent dopamine transporter; assay: Displacement of [3H]WIN-35,428 from human DAT expressed in N2A cells after 15 mins by photoaffinity labeling
[5] = target: T1, Neuronal acetylcholine receptor; alpha4/beta2 (Homo sapiens); assay: Binding affinity to human alpha4beta2 nAChR in HEK cells at 0.21 nM after 5 hrs by gamma counting in the presence of (+/-)-bupropion; conditions: HEK293, tested as the 125I-labelled form
[6] = target: T2, Sodium-dependent dopamine transporter; assay: Binding affinity to human His6-DAT expressed in LLCPK1 cells at 10 nM after 1.5 hrs measured 2 mins post-irradiation by autoradiography in the presence of (+/-)-cocaine; conditions: LLC-PK1, tested as the 125I-labelled form

CC(NC(C)(C)C)C(=O)c1ccc(N=[N+]=[N-])c(I)c1 (racemic)
Activity [1]: inactive | Activity [2]: Active | Activity [3]: inactive | Ki [4]: 3.07 µM | Activity [5]: inactive | Activity [6]: inactive
